Drawing on US7291612B2, “Immunomodulatory compounds” (Active Biotech A.B., priority 2002, dated 2007), this text covers EC50 for 52 molecules.

The target in the assay is T1, CD80-CD28 interaction (Homo sapiens, UniProt P33681).
T1 construct: mouse Fab fragment (fusion partner)
T1 sequence (P33681 35-242 limits assumed): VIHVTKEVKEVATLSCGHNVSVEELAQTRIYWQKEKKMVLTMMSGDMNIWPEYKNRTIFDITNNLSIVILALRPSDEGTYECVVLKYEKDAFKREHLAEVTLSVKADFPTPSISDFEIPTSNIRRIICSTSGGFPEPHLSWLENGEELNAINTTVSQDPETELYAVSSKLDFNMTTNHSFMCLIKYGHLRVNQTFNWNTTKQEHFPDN
Put plainly: cell free Homogenous Time Resolved Fluorescence (HTRF) assay, inhibition of the CD80-CD28 interaction. Format: binding. As for the experimental part:
The examples described above were tested in a cell free Homogenous Time Resolved Fluorescence (HTRF) assay to determine their activity as inhibitors of the CD80-CD28 interaction.
In the assay, europium and allophycocyanin (APC) are associated with CD28 and CD80 indirectly (through antibody linkers) to form a complex, which brings the europium and APC into close proximity to generate a signal. The complex comprises the following six proteins: fluorescent label 1, linker antibody 1, CD28 fusion protein, CD80 fusion protein, linker antibody 2, and fluorescent label 2. The table below describes these reagents in greater detail.
On formation of the complex, europium and APC are brought into proximity and a signal is generated.
Non-specific interaction was measured by substituting a mouse Fab fragment (C215) for the CD80 mouse Fab fragment fusion protein (1.9 μg/ml). The assay was carried out in black 384 well plates in a final volume of 30 μl. Assay buffer: 50 mM Tris-HCl, 150 mM NaCl pH7.8, containing 0.1% BSA (w/v) added just prior to use.
Compounds were added to the above reagents in a concentration series ranging between 100 μM-1.7 nM. The reaction was incubated for 4 hours at room temperature. Dual measurements were made using a Wallac Victor 1420 Multilabel Counter. First measurement: excitation 340 nm, emission 665 nm, delay 50 μs, window time 200 μs. second measurement: excitation 340 nm, emission 615 nm, delay 50 μs, window time 200 μs. Counts were automatically corrected for fluorescence crossover, quenching and background.

Setting [1] is: 4 hours at room temperature, read-out: Activity (EC50 in summary form).

Read-outs that look alike come from different tables or passages of the source. A value given as a limit tells only on which side of the number the result lay.

Take `CCC(C)C(=O)Nc1ccc(-n2nc3c4cccc(F)c4[nH]cc-3c2=O)cc1` (centres unmarked) [Example 1, N-[4-(6-Fluoro-3-oxo-3,5-dihydropyrazolo[4,3-c]quinolin-2-yl)-phenyl]-2-methyl-butyramide]: the EC50 under setting [1] was below 1000 nM. On the same count and under the same terms, for `CCCC(C)C(=O)Nc1ccc(-n2nc3c4cccc(F)c4[nH]cc-3c2=O)cc1` (centres unmarked) [Example 2, 2-Methyl-pentanoic acid [4-(6-fluoro-3-oxo-3,5-dihydro-pyrazolo[4,3-c]quinolin-2-yl)-phenyl]-amide] the value was below 1000 nM; for `Cn1cccc1C(=O)Nc1ccc(-n2nc3c4cccc(F)c4[nH]cc-3c2=O)cc1` [Example 3, 1-Methyl-1H-pyrrole-2-carboxylic acid [4-(6-fluoro-3-oxo-3,5-dihydro-pyrazolo[4,3-c]quinolin-2-yl)-phenyl]-amide], above 10000 nM.

`CC(C)CC(=O)Nc1ccc(-n2nc3c4cccc(F)c4[nH]cc-3c2=O)cc1` [Example 4, N-[4-(6-Fluoro-3-oxo-3,5-dihydro-pyrazolo[4,3-c]quinolin-2-yl)-phenyl]-3-methyl-butyramide]: the EC50 under setting [1] is 1000 to 10000 nM. With `CCCC(CCC)C(=O)Nc1ccc(-n2nc3c4cccc(F)c4[nH]cc-3c2=O)cc1` [Example 5, 2-Propyl-pentanoic acid [4-(6-fluoro-3-oxo-3,5-dihydro-pyrazolo[4,3-c]quinolin-2-yl)-phenyl]-amide], the EC50 under setting [1] is above 10000 nM. On the same count and under the same terms, for `COC(=O)CCCCC(=O)Nc1ccc(-n2nc3c4cccc(F)c4[nH]cc-3c2=O)cc1` [Example 6, 5-[4-(6-Fluoro-3-oxo-3,5-dihydro-pyrazolo[4,3-c]quinolin-2-yl)phenylcarbamoyl]-pentanoic acid methyl ester] the value was below 1000 nM; for `CC(C)(C)C(=O)Nc1ccc(-n2nc3c4cccc(F)c4[nH]cc-3c2=O)cc1` [Example 7, N-[4-(6-Fluoro-3-oxo-3,5-dihydro-pyrazolo[4,3-c]quinolin-2-yl)-phenyl]-2,2-dimethyl-propionamide], 1000 to 10000 nM.

Take `O=C(COCc1ccccc1)Nc1ccc(-n2nc3c4cccc(F)c4[nH]cc-3c2=O)cc1` [Example 8]: under setting [1], the EC50 was in the range of 1000 to 10000 nM. With `O=C(CCl)Nc1ccc(-n2nc3c4cccc(F)c4[nH]cc-3c2=O)cc1` [Example 9], the concentration for a half-maximal effect (EC50) under setting [1] lay in the range of 1000 to 10000 nM. With `O=C(Nc1ccc(-n2nc3c4cccc(F)c4[nH]cc-3c2=O)cc1)c1ccco1` [Example 10], under setting [1], the EC50 was above 10000 nM. In the case of `O=C(Nc1ccc(-n2nc3c4cccc(F)c4[nH]cc-3c2=O)cc1)c1ccc(N2CCOCC2)nc1` [Example 11], the EC50 under setting [1] is above 10000 nM. In the case of `COC(=O)C(=O)Nc1ccc(-n2nc3c4cccc(F)c4[nH]cc-3c2=O)cc1` [Example 12], under setting [1], the EC50 fell in the range of 1000 to 10000 nM. Turning to `CCCc1c(C(=O)Nc2ccc(-n3nc4c5cccc(F)c5[nH]cc-4c3=O)cc2)cnn1-c1ccccc1` [Example 14], the EC50 under setting [1] is above 10000 nM. `O=C(Nc1ccc(-n2nc3c4cccc(F)c4[nH]cc-3c2=O)cc1)c1ncoc1-c1ccccc1` [Example 15]: the EC50 was 1000 to 10000 nM under setting [1] and 8000 nM (read-out: EC50). For the molecule `CC(=O)Nc1ccc(-n2nc3c4cccc(F)c4[nH]cc-3c2=O)cc1` [Example 16], the EC50 under setting [1] lay in the range of 1000 to 10000 nM. With `CCCCC(CC)C(=O)Nc1ccc(-n2nc3c4cccc(F)c4[nH]cc-3c2=O)cc1` (centres unmarked) [Example 17], the EC50 under setting [1] was above 10000 nM. Still for that read-out and setting: for `CCC(CC)C(=O)Nc1ccc(-n2nc3c4cccc(F)c4[nH]cc-3c2=O)cc1` [Example 18] the value was below 1000 nM; for `O=C(CC1CCCC1)Nc1ccc(-n2nc3c4cccc(F)c4[nH]cc-3c2=O)cc1` [Example 19], 1000 to 10000 nM; for `CC(=O)N1CCC(C(=O)Nc2ccc(-n3nc4c5cccc(F)c5[nH]cc-4c3=O)cc2)CC1` [Example 20], 1000 to 10000 nM. As for `O=C(Cc1c(Cl)cccc1Cl)Nc1ccc(-n2nc3c4cccc(F)c4[nH]cc-3c2=O)cc1` [Example 21], the EC50 is 1000 to 10000 nM under setting [1] and 1900 nM (read-out: EC50).

`CC(=O)OC(C)(C)C(=O)Nc1ccc(-n2nc3c4cccc(F)c4[nH]cc-3c2=O)cc1` [Example 22]: under setting [1], the EC50 was below 1000 nM.

On to `COC(=O)CCCCCCCCC(=O)Nc1ccc(-n2nc3c4cccc(F)c4[nH]cc-3c2=O)cc1` [Example 23], for which the EC50 under setting [1] was in the range of 1000 to 10000 nM. For the molecule `CC(C)C(=O)Nc1ccc(-n2nc3c4cccc(F)c4[nH]cc-3c2=O)cc1` [Example 24], the EC50 under setting [1] was below 1000 nM. On to `COCCOCC(=O)Nc1ccc(-n2nc3c4cccc(F)c4[nH]cc-3c2=O)cc1` [Example 25], for which, under setting [1], the concentration for a half-maximal effect (EC50) fell in the range of 1000 to 10000 nM.

As to `COCC(=O)Nc1ccc(-n2nc3c4cccc(F)c4[nH]cc-3c2=O)cc1` [Example 27], the EC50 under setting [1] lay in the range of 1000 to 10000 nM. Same read-out and setting: as for `O=C(Nc1ccc(-n2nc3c4cccc(F)c4[nH]cc-3c2=O)cc1)c1ccno1` [Example 28], the figure is 1000 to 10000 nM. `C[N+](C)(C)CCCC(=O)Nc1ccc(-n2nc3c4cccc(F)c4[nH]cc-3c2=O)cc1` [Example 29]: the EC50 was below 1000 nM under setting [1] and 950 nM (read-out: EC50). For `CN(C)CCCC(=O)Nc1ccc(-n2nc3c4cccc(F)c4[nH]cc-3c2=O)cc1` [Example 30], the EC50 under setting [1] is below 1000 nM.

`CN(CCCNCC(=O)Nc1ccc(-n2nc3c4cccc(F)c4[nH]cc-3c2=O)cc1)c1ccccc1` [Example 31]: under setting [1], the EC50 was above 10000 nM.

Turning to `CN(C)c1ccc(CNCC(=O)Nc2ccc(-n3nc4c5cccc(F)c5[nH]cc-4c3=O)cc2)cc1` [Example 32], the EC50 under setting [1] is above 10000 nM. Take `CN1C(C)(C)CC(NCC(=O)Nc2ccc(-n3nc4c5cccc(F)c5[nH]cc-4c3=O)cc2)CC1(C)C` [Example 33]: the EC50 under setting [1] is below 1000 nM. Regarding `O=C(CN1CCN(C2CCCCCC2)CC1)Nc1ccc(-n2nc3c4cccc(F)c4[nH]cc-3c2=O)cc1` [Example 34], the EC50 under setting [1] was below 1000 nM.

Turning to `O=C(CNCCCN1CCCC1=O)Nc1ccc(-n2nc3c4cccc(F)c4[nH]cc-3c2=O)cc1` [Example 35], the EC50 runs as follows: under setting [1], below 1000 nM; (read-out: EC50) 148 nM. `O=C(CNCCc1ccccn1)Nc1ccc(-n2nc3c4cccc(F)c4[nH]cc-3c2=O)cc1` [Example 36]: the EC50 under setting [1] is 1000 to 10000 nM. On the same count and under the same terms, as for `O=C(CNC1CCCCNC1=O)Nc1ccc(-n2nc3c4cccc(F)c4[nH]cc-3c2=O)cc1` (centres unmarked) [Example 37], the figure is 1000 to 10000 nM; as for `COC(=O)CC[C@H](N)C(=O)Nc1ccc(-n2nc3c4cccc(F)c4[nH]cc-3c2=O)cc1` [Example 38], 1000 to 10000 nM. Consider `CN1CCCC1CCNCC(=O)Nc1ccc(-n2nc3c4cccc(F)c4[nH]cc-3c2=O)cc1` (centres unmarked) [Example 39], for which, under setting [1], the EC50 is below 1000 nM. As to `O=C(CNCCCn1ccnc1)Nc1ccc(-n2nc3c4cccc(F)c4[nH]cc-3c2=O)cc1` [Example 40], the EC50 under setting [1] lay within 1000 to 10000 nM. As to `CC(C)N(CCNCC(=O)Nc1ccc(-n2nc3c4cccc(F)c4[nH]cc-3c2=O)cc1)C(C)C` [Example 41], the EC50 under setting [1] was 1000 to 10000 nM. As for `O=C(CN1CCCCC1)Nc1ccc(-n2nc3c4cccc(F)c4[nH]cc-3c2=O)cc1` [Example 42], under setting [1], the EC50 lay in the range of 1000 to 10000 nM. For the molecule `CC(N)C(=O)Nc1ccc(-n2nc3c4ccccc4[nH]cc-3c2=O)cc1` (centres unmarked) [Example 43], the EC50 under setting [1] was in the range of 1000 to 10000 nM. Same read-out and setting: for `CCCC(C)C(=O)Nc1ccc(-n2nc3c4ccccc4[nH]cc-3c2=O)cc1` (centres unmarked) [Example 44] the value was above 10000 nM; for `CC(C)C(=O)Nc1ccc(-n2nc3c4ccccc4[nH]cc-3c2=O)cc1` [Example 45], 1000 to 10000 nM; for `CC(N)C(=O)Nc1ccc(-n2nc3c4cccc(F)c4[nH]cc-3c2=O)cc1` (centres unmarked) [Example 46], below 1000 nM. On the same count and under the same terms, for `CCC(C)C(=O)Nc1ccc(-n2nc3c4ccccc4[nH]cc-3c2=O)cc1` (centres unmarked) [Example 47] the value was 1000 to 10000 nM; for `O=C(CN1CCN(Cc2ccc(F)cc2)CC1)Nc1ccc(-n2nc3c4cccc(F)c4[nH]cc-3c2=O)cc1` [Example 48], 1000 to 10000 nM. Regarding `CN(CC(=O)Nc1ccc(-n2nc3c4cccc(F)c4[nH]cc-3c2=O)cc1)Cc1ccccc1` [Example 49], the EC50 under setting [1] lay within 1000 to 10000 nM. As for `COCCCNC(=O)c1cccc(-n2nc3c4cccc(F)c4[nH]cc-3c2=O)c1` [Example 50, 3-(6-Fluoro-3-oxo-3,5-dihydro-pyrazolo[4,3-c]quinolin-2-yl)-N-(3-methoxy-propyl)-benzamide], under setting [1], the EC50 fell in the range of 1000 to 10000 nM. On to `CCNC(=O)c1cccc(-n2nc3c4cccc(F)c4[nH]cc-3c2=O)c1` [Example 51, N-Ethyl-3-(6-fluoro-3-oxo-3,5-dihydro-pyrazolo[4,3-c]-quinolin-2-yl)-benzamide], for which, under setting [1], the EC50 is 1000 to 10000 nM. On to `O=C(NCc1ccccc1)c1cccc(-n2nc3c4cccc(F)c4[nH]cc-3c2=O)c1` [Example 52, N-Benzyl-3-(6-fluoro-3-oxo-3,5-dihydro-pyrazolo[4,3-c]-quinolin-2-yl)-benzamide], for which the EC50 under setting [1] is above 10000 nM. Regarding `CN(C)CCCN(C)C(=O)c1cccc(-n2nc3c4cccc(F)c4[nH]cc-3c2=O)c1` [Example 53], the EC50 under setting [1] was above 10000 nM. On to `CN(C)CCCNC(=O)c1cccc(-n2nc3c4cccc(F)c4[nH]cc-3c2=O)c1` [Example 54], for which, under setting [1], the EC50 lay within 1000 to 10000 nM.
